Assay results: patent US5942534A, “Photodynamic therapy for the treatment of osteoarthritis” (The General Hospital Corporation, priority 1997, dated 1999)
Converted amounts (≈) assume the structure as drawn. Like-named read-outs stand apart in the source and are kept apart here.

Legend:
Format in all cases: cell-based, calf
chondrocytes [1] = assay: PDT-induced cytotoxicity (MTT cellular viability) in chondrocytes; settings: for toxic response / cellular viability (in words): 1, 5 or 10 J/cm^2 light; for decrease in cellular viability: BPD-MA concentrations exceeding 0.1 μg/ml, 690 nm
Procedure: (§1) Chondrocytes were harvested by established collagenase digestion techniques. Articular cartilage was aseptically dissected from the femoral condyles and patellas of calf knee joints. […] The resulting cell suspensions were filtered through a cell sieve and washed twice with serum free TCM. The cells were resuspended in the same medium containing 5% heat inactivated fetal calf serum (BioWhittaker, Walkerville, Md.) (FCS-TCM) for seeding. Cell number was determined using a hemocytometer. […] Cells were plated at a density of 1.5×10^6 cells/ml into Falcon 96 well cell culture plates (Becton Dickinson Labware, Franklin Lakes, N.J.) for the cytotoxicity and cell proliferation experiments and into Falcon 6 well cell culture plates for the Photosensitizer uptake studies. Chondrocyte cultures were maintained at 37° C. in a 5% CO2 incubator for 1 week prior to initiation of the photosensitization studies.
(§2) Photofrin® (PF) and Benzoporphyrin Derivative (BPD-MA) were obtained from Quadralogic Technologies (Vancouver, Canada). Chlorin e6 (Ce6) and chloroaluminum phthalocyanine (CASP) were obtained from Ciba Geigy (Basel, Switzerland) and Porphyrin Products (Logan, Utah), respectively. All photosensitizers were added to the chondrocytes in the dark 3 hours prior to light exposure. Photosensitizer stock solutions were prepared immediately prior to each experiment; serial dilutions were prepared using FCS-TCM. All irradiations were done at the appropriate excitation wavelengths for each photosensitizer (BPD-MA 690 nm; Ce6 658 nm; CASP 680 nm; PF 624 nm) using light provided by an argon ion pumped dye laser (Coherent, Palo Alto, Calif.). Following light exposure, control and irradiated cells were maintained for 72 hours prior to the assessment of cellular viability and proliferation rates. Cells were examined daily by light microscopy for morphologic changes.
Screening studies of toxicity determined the range of doses and light response for each photosensitizer. These predetermined ranges were used for all of the studies described. […] Dosages greater than 50 μg/ml were considered not clinically relevant and a dose range extending to 50 μg/ml was chosen for these studies.
PDT-induced cytotoxicity was determined 72 hours after irradiation. […] MTT is metabolized via mitochondrial dehydrogenase enzymes to a formazan dye which can be measured spectrophotometrically. Cytotoxicity is expressed as the percentage of formazan produced in cells treated with visible light of different wavelengths and intensities relative to control cells (% control). The data are expressed as the mean ±S.E.M. from triplicate experiments.

MMP2 = assay: Gelatin zymography, MMP2 after PDT; settings: for reduction of MMP2 production: at the IC50 dose
Procedure: as §1, §2
Aliquots of conditioned medium were mixed with 1 ml of acetone and maintained at -20° C. for 16-20 hours. The aliquots were microcentrifuged at 14,000×g for 15 minutes, the supernatant was removed and the precipitated protein was dried in a vacuum concentrator (Savant, Farmingdale, N.Y.) to remove residual acetone. Conditioned medium samples were mixed with sample buffer (0.4 M Tris pH 6.8, 5% SDS, 20% glycerol, 0.003% bromophenol blue) and applied directly, without boiling or reduction, to 10% acrylamide gels containing 1% gelatin. […] The gels were stained for 1 hour at room temperature in 30% methanol/10% acetic acid containing 0.5% coomassie blue R-250 and destained in the same solution without dye. The gelatinolytic activity of the proteins was evidenced by clear bands against the blue background of the stained gelatin.

articular chondrocytes = assay: Photosensitizer uptake studies; settings: for IC50 Uptake: uptake at the IC50, 3 hours incubation in the dark; for relative uptake (in words): at the IC50 concentrations, 3 hour incubation
Procedure: as §1
(§3) Articular chondrocytes were maintained in primary culture for five days after plating. Photosensitizer stocks were serially diluted in FCS-TCM and added to triplicate wells. The cells were incubated in the dark for 3 hours. The photosensitizer-containing FCS-TCM was then removed and the cells were rinsed with 1 ml PBS. To digest the extracellular matrix, the cells were then immersed in 1 ml of a solution of 1 mg/ml collagenase and 0.1 mg/ml hyaluronidase in serum-free TCM. The resulting single cell suspensions were transferred to microfuge tubes and were centrifuged at 3.3×g for 5 minutes. The collagenase solution was removed and the cells were rinsed three times with calcium/magnesium-free PBS. Aliquots were taken for cell counting prior to cell lysis with 1 ml 0.1 N NaOH containing 1% SDS. Cell counting was performed by hemocytometer and Coulter counter. Fluorescent spectra of the cell lysates were obtained using a Spex FluoroMax spectrofluorometer (ISA Instruments, Edison, N.J.) at the appropriate excitation/emission wavelengths for each of the four photosensitizers studied. Fluorescence spectra were corrected for background fluorescence. Relative uptake values were obtained by regression analysis of standard curves of known photosensitizer concentrations. […] Values of uptake at the IC50 are shown in fg/cell. Average protein per cell was calculated from the cell counts and protein concentration determined by the Lowry protein assay.

chondrocytes [2] = assay: Cell proliferation ([^3 H]-thymidine incorporation) after PDT; settings: for effect on cellular proliferation rates (in words): [^3 H]-thymidine incorporation (FIG. 2); for IC50: Bos taurus, Chondrocyte
Procedure: as §1, §2
Cell proliferation was determined by [^3 H]-thymidine incorporation for all chondrocyte cultures 72 hours after drug and/or light exposure. The cell cultures were labeled with 5 μCi/ml [^3 H]-thymidine (35 Ci/mmol) (ICN, Irvine, Calif.) in FCS-TCM. After incubation for 20 hours, the radioactive medium was removed and the cells were rinsed three times with phosphate buffered saline (PBS) to remove unincorporated label. The cells were then lysed with buffer containing 150 mM Tris pH 8.0, 200 mM sodium chloride, 10% triton X-100 and 1% SDS. [^3 H]-thymidine incorporation was determined by liquid scintillation methods and the data are expressed as mean % control ±S.E.M. of samples irradiated without photosensitizer addition.
as §3, with “fg/cell.” for “fg/cell. Average protein per cell was calculated from the cell counts and protein concentration determined by the Lowry protein assay.”

chondrocytes [3] = assay: Fluorescence of photosensitizers in chondrocytes (confocal microscopy)
MMP9 = assay: Gelatin zymography, MMP9 after PDT; settings: at PDT parameter levels non-toxic to chondrocytes
Procedure: Chondrocytes were harvested by established collagenase digestion techniques. Articular cartilage was aseptically dissected from the femoral condyles and patellas of calf knee joints. Condyle surface shavings were finely minced and digested overnight at 37° C. with collagenase 1 mg/ml (Type II; 355 U/mg dry weight (dw)) and hyaluronidase 0.1 mg/ml (1060 USP/NF units/mg dw) (Worthington Biochemicals, Inc., Freehold, N.J.) in Dulbecco's Modified Eagle's Medium (DMEM; Mediatech, Herndon, Va.) supplemented with 20 mM HEPES, 100 U/ml penicillin G, 100 μg/ml ascorbic acid (serum free TCM). The resulting cell suspensions were filtered through a cell sieve and washed twice with serum free TCM. The cells were resuspended in the same medium containing 5% heat inactivated fetal calf serum (BioWhittaker, Walkerville, Md.) (FCS-TCM) for seeding. Cell number was determined using a hemocytometer. Cell viability, which was determined by trypan blue exclusion, was greater than 99% for all preparations. Cells were plated at a density of 1.5×10^6 cells/ml into Falcon 96 well cell culture plates (Becton Dickinson Labware, Franklin Lakes, N.J.) for the cytotoxicity and cell proliferation experiments and into Falcon 6 well cell culture plates for the Photosensitizer uptake studies. […]

[4] = CASP parameters tested in zymography studies
[5] = concentration inhibiting [^3 H]-thymidine incorporation by 50%

**Q.** Which “toxic response / cellular viability (in words)” value (chondrocytes [1]) does the source give for `[Cl][Al]1[n]2c3c4ccccc4c2N=C2N=C(N=c4c5ccccc5c([n]41)=NC1=NC(=N3)c3ccccc31)c1ccccc12` [CASP, chloroaluminum phthalocyanine] here?
**A.** Its value is “minimally toxic to articular chondrocytes”.

**Q.** And the “decrease in cellular viability by MTT production (in words)” value (chondrocytes [1]; [4])?
**A.** The value was “no decrease in cellular viability was observed”.

**Q.** What about the “saturation of toxicity effects (in words)” value (chondrocytes [1]; in the range studied (FIG. 1D)) of the same molecule?
**A.** Its value is “No saturation effects were observed”.

**Q.** What about the “dose response in screening studies of toxicity (in words)” value (chondrocytes [1]; screening studies of toxicity to determine range of doses) of the same molecule?
**A.** Its value is “no dose response was seen”.

**Q.** What about the “reduction in MMP2 levels (in words)” value (MMP2; 3.12 μg/ml, light dose of 10 J/cm^2, no decrease in cell viability) of the same molecule?
**A.** The value was “complete reduction in MMP2 levels”.

**Q.** What about the “reductions in MMP2 levels (in words)” value (MMP2; CASP parameters tested) of the same molecule?
**A.** The value was “significant reductions in MMP2 levels”.

**Q.** What about the “decrease of MMP2 levels” value (MMP2; drug concentrations greater than 0.2 μg/ml, light dose of 10 J/cm^2) of the same molecule?
**A.** The value was 25%.

**Q.** And the “Photons Absorbed at IC50” value (articular chondrocytes)?
**A.** The value was 1.86 × 10^6 photons/cell.

**Q.** And the “IC50 Uptake” value (articular chondrocytes)?
**A.** Its value is 64.77 fg/cell.

**Q.** What about the “reduction of [^3 H]-thymidine incorporation” value (chondrocytes [2]; 50 μg/ml, highest concentration of CASP investigated) of the same molecule?
**A.** Its value is 25%.

**Q.** And the “decrease by [^3 H]-thymidine incorporation (in words)” value (chondrocytes [2]; [4])?
**A.** Its value is “no decrease in cellular viability was observed”.

**Q.** And the “effect on cellular proliferation rates (in words)” value (chondrocytes [2])?
**A.** Its value is “least toxic”.

**Q.** What about the “IC50 (Table 2)” value (chondrocytes [2]; [5]) of the same molecule?
**A.** Its value is greater than 50 µg/mL.

**Q.** What about the “cellular fluorescence intensity (in words)” value (chondrocytes [3]) of the same molecule?
**A.** The value was “Minimal CASP fluorescence was observed at the drug concentrations studied”.

**Q.** `C=Cc1c(C)c2cc3nc(c(CC(=O)O)c4[nH]c(cc5nc(cc1[nH]2)C(C)=C5CC)c(C)c4C(=O)O)[C@@H](CCC(=O)O)[C@@H]3C` [Ce6, Chlorin e6] was tested. Which decrease in viability (chondrocytes [1]; more than 6 μg/ml Ce6, 5 or 10 J/cm^2 light, 658 nm, 72 hours after irradiation) did it give?
**A.** Its decrease in viability is “approximately 50%”.

**Q.** What about the “MMP2 production (in words)” value (MMP2; at PDT parameter levels non-toxic to chondrocytes) of the same molecule?
**A.** The value was “reduced at PDT parameter levels non-toxic to chondrocytes”.

**Q.** What about the “MMP production (in words)” value (MMP2; at high drug doses) of the same molecule?
**A.** Its value is “correspondingly greater decreases in MMP production”.

**Q.** What about the “reduction of MMP2 production” value (MMP2) of the same molecule?
**A.** The value was greater than 95%.

**Q.** What about the “total protein concentration (in words)” value (MMP2; zymography studies) of the same molecule?
**A.** The value was “did not vary with MMP values”.

**Q.** What about the “MMP9 production (in words)” value (MMP9) of the same molecule?
**A.** The value was “reduced at PDT parameter levels non-toxic to chondrocytes”.

**Q.** What about the “Photons Absorbed at IC50” value (articular chondrocytes) of the same molecule?
**A.** Its value is 1.44 × 10^8 photons/cell.

**Q.** What about the “relative uptake (in words)” value (articular chondrocytes) of the same molecule?
**A.** The value was “markedly less than for CASP and PF”.

**Q.** What about the “IC50 Uptake” value (articular chondrocytes) of the same molecule?
**A.** Its value is 2.32 fg/cell.

**Q.** And the IC50 (chondrocytes [2]; 72 hours after drug and/or light exposure, light dose not given, read-out: IC50, inhibition of chondrocyte proliferation ([^3 H]-thymidine incorporation))?
**A.** Its IC50 is 4.4 µg/mL (≈ 7.37 µM).

**Q.** And the IC50 (chondrocytes [2]; concentration inhibiting [^3 H]-thymidine incorporation by 50%, read-out: IC50 (Table 2))?
**A.** Its IC50 is 4.4 µg/mL (≈ 7.37 µM).

**Q.** What about the “cellular fluorescence intensity (in words)” value (chondrocytes [3]) of the same molecule?
**A.** Its value is “elevated levels of cytoplasmic fluorescence comparable in intensity and distribution to BPD-MA”.

**Q.** Benzoporphyrin Derivative [BPD-MA] was tested. Which “toxic response / cellular viability (in words)” value (chondrocytes [1]) did it give?
**A.** Its value is “most toxic responses in chondrocyte cultures”.

**Q.** What about the “decrease in cellular viability” value (chondrocytes [1]; 1 J/cm^2 light, 72 hours after irradiation) of the same molecule?
**A.** The value was 60%.

**Q.** And the “decrease in cellular viability” value (chondrocytes [1]; 5 or 10 J/cm^2 light, 72 hours after irradiation)?
**A.** The value was 80%.

**Q.** And the “MMP2 production (in words)” value (MMP2; at a highly toxic dose)?
**A.** Its value is “non-detectable”.

**Q.** What about the “reduction of MMP2 production” value (MMP2) of the same molecule?
**A.** Its value is “approximately 50%”.

**Q.** What about the “MMP2 production (in words)” value (MMP2; dependence on cell killing) of the same molecule?
**A.** Its value is “MMP2 production decreased as a function of cell killing”.

**Q.** What about the “Photons Absorbed at IC50” value (articular chondrocytes) of the same molecule?
**A.** The value was 5.86 × 10^6 photons/cell.

**Q.** And the “relative uptake (in words)” value (articular chondrocytes)?
**A.** The value was “lowest relative uptake”.

**Q.** What about the “IC50 Uptake” value (articular chondrocytes) of the same molecule?
**A.** Its value is 1.02 fg/cell.

**Q.** What about the “IC50, inhibition of chondrocyte proliferation ([^3 H]-thymidine incorporation)” value (chondrocytes [2]; 72 hours after drug and/or light exposure, light dose not given) of the same molecule?
**A.** The value was 0.0503 µg/mL.

**Q.** And the “effect on cellular proliferation rates (in words)” value (chondrocytes [2])?
**A.** Its value is “most toxic effects”.

**Q.** And the “IC50 (Table 2)” value (chondrocytes [2]; [5])?
**A.** The value was 0.05 µg/mL.

**Q.** And the “cellular fluorescence intensity (in words)” value (chondrocytes [3])?
**A.** The value was “strongest fluorescence signals”.

**Q.** What about the “fluorescence/uptake in differentiated vs dedifferentiated chondrocytes (in words)” value (chondrocytes [3]) of the same molecule?
**A.** Its value is “Fluorescence occurred uniformly in both differentiated and dedifferentiated chondrocytes”.

**Q.** What about the “subcellular fluorescence distribution (in words)” value (chondrocytes [3]) of the same molecule?
**A.** Its value is “diffuse cytoplasmic fluorescence for all drug concentrations studied. No nuclear or membrane staining was observed”.
